Data on 24 molecules can be found in paper PMC8122397, “Synthesis of New Triazolopyrazine Antimalarial Compounds” (Molecules, 2021).

Each structure is given as a SMILES string. Like-named read-outs stand apart in the source and are kept apart here.

In series [1] the test system is Plasmodium falciparum Dd2 (chloroquine, pyrimethamine, and mefloquine drug-resistant strain). Description: In vitro anti-plasmodial image-based asexual assay, Dd2 strain. It is filed as cell-based. To be noted: for IC50 / inhibition at 80 µM: Plasmodium falciparum, Dd2 strain; for IC50: 72 h; for Dd2 potency compared to the 3D7 results, in words: Dd2 versus 3D7; for inhibition at 80 µM: top dose of 80 µM, read-out: Pf Dd2 inhibition at the top dose. The method, then:
(§1) The semisynthesized/functionalized triazolopyrazine compounds and the scaffold triazolopyrazine precursors, compounds 1–18, were tested for their antimalarial activity against the 3D7 (chloroquine-sensitive strain) and Dd2 (chloroquine, pyrimethamine, and mefloquine resistant strain) P. falciparum. Where an accurate IC50 value could not be determined due to 100% growth inhibition and a plateau not being reached, but where ≥90% growth inhibition was attained at the top screening concentration, an estimated IC50 value was calculated.
(§2) Plsamodium falciparum 3D7 and Dd2 parasites were cultured in RPMI1640 (Life Technologies, Camarillo, CA, USA) supplemented with 2.5 mg/mL Albumax II, 5% AB human serum, 25 mM HEPES, and 0.37mM hypoxanthine. Ring stage parasites were treated with compounds following two rounds of sorbitol synchronization, as previously described. Artesunate and pyrimethamine were incorporated as controls. Following incubation of assay plates for 72 h at 37 °C, and 5% CO2 and 5% O2, parasites were stained with 2-(4-amidinophenyl)-1H-indole-6-carboxamidine (DAPI) and imaged using an Opera QEHS confocal imaging system (PerkinElmer, Waltham, MA, USA). Images were analyzed, as previously described, using Acapella spot detection software (PerkinElmer, Waltham, MA, USA).
(§3) Normalizing of raw data used the in-plate positive (5 μM puromycin 100% inhibition) and negative (0.4% DMSO–no inhibition) controls to obtain percent inhibition and then used to calculate IC50 values through a 4 parameter logistic curve fitting in GraphPad Prism v.6.

Series [2] relates to Plasmodium falciparum 3D7 (chloroquine-sensitive strain). Description: In vitro anti-plasmodial image-based asexual assay, 3D7 strain. It is filed as cell-based. The following applies: for IC50 / inhibition at 80 µM: 3D7 strain; for IC50: 72 h; for inhibition at 80 µM: top dose of 80 µM, read-out: Pf 3D7 inhibition at the top dose. The method, then: as §1, §2, §3
The subject of the next series is Pf 3D7. The following applies: cited from earlier work.
Series [3] deals with Plasmodium falciparum (Pf). Details: method as in earlier work. The following applies: OSM master compounds' list; read-out: Pf activity IC50, previously reported OSM data; cited from earlier work.
Setting [4] is: controls, read-out: Pf Dd2 IC50 ± SD (controls).
The mark [5] stands for this setting: Plasmodium falciparum, 3D7, 72 h, controls, read-out: Pf 3D7 IC50 ± SD (controls).
[6] abbreviates: estimated IC50 as only ~90% inhibition reached at the top dose of 80 µM, read-out: Pf 3D7 IC50 ± SD (estimated, footnote d).
Setting [7] is: Plasmodium falciparum, 3D7, 72 h, estimated IC50 as only ~90% inhibition reached at the top dose of 80 µM, read-out: Pf 3D7 IC50 ± SD (estimated, footnote d).
Setting [8] is: Plasmodium falciparum, 3D7, 72 h, read-out: Pf 3D7 IC50 ± SD.
The mark [9] stands for this setting: in vitro, read-out: IC50 (Pf 3D7), Figure 1.

In general, IC50 refers to the concentration that gives 50% inhibition. In the case of `C[C@H]1[C@H](OC(=O)CCC(=O)O)O[C@@H]2O[C@@]3(C)CC[C@H]4[C@H](C)CC[C@@H]1[C@@]24OO3` [Artesunate, reference compound], the results for the 50% inhibitory concentration (IC50) in series [1] (setting [4]) and in series [2] (setting [5]) were 0.002 ± 0.0001 µM and 0.00348 ± 0.00014 µM, respectively.

For `FC(F)Oc1ccc(-c2nnc3cncc(Cl)n23)cc1` [Compound 1], the IC50 in series [1] (read-out: Pf Dd2 IC50 ± SD) is 22.8 ± 13.7 µM; in series [2] (setting [6]), 16.8 ± 1.25 µM; in series [2] (setting [7]), 16.8 µM.

For `FC(F)Oc1ccc(-c2nnc3cncc(OCCc4ccccc4)n23)cc1` [Compound 2, 3-[4-(Difluoromethoxy)phenyl]-5-(2-phenylethoxy)-[1,2,4]triazolo[4,3-α]pyrazine], the IC50 in series [1] (read-out: Pf Dd2 IC50 ± SD) was 0.54 ± 0.02 µM; in series [2] (read-out: Pf 3D7 IC50 ± SD) it was 0.31 ± 0.01 µM; in series [2] (setting [8]), 0.3 µM; with Pf 3D7 (setting [9]) it was 0.3 µM; in the series with Pf 3D7 (read-out: IC50 against Pf 3D7, previously reported), 0.301 µM.

A word on the melting point: it is the temperature of the solid-liquid transition. Regarding `FC(F)Oc1ccc(-c2nnc3cncc(OCC(F)(F)F)n23)cc1` [Compound 3, 3-[(4-Difluoromethoxy)phenyl]-5-(2,2,2,-trifluroethoxy)-[1,2,4]triazolo[4,3-α]pyrazine], the melting point was in the range of 169 to 170 °C. The IC50 in series [3] is 10 µM. In addition, the half-maximal inhibitory concentration (IC50) in series [1] (read-out: Pf Dd2 IC50 ± SD) stood at 21.2 ± 5.41 µM. In addition, in series [2] (read-out: Pf 3D7 IC50 ± SD), the half-inhibitory concentration (IC50) came out at 16.6 ± 1.02 µM. Besides, the IC50 in series [2] (setting [8]) was determined as 16.7 µM.

As usually defined, the inhibition is the drop in the measured response relative to a control, in per cent. Consider `Oc1nccn2c(-c3ccc(OC(F)F)cc3)nnc12` [Compound 4, 3-[4-(Difluoromethoxy)phenyl]-[1,2,4]triazolo[4,3-α]pyrazin-8-ol], for which the inhibition at 80 µM in series [2] (Plasmodium falciparum) was below 41%.

Regarding `C[Si](C)(C)CCOc1cncc2nnc(-c3ccc(OC(F)F)cc3)n12` [Compound 5], the melting point worked out at 135 °C. In addition, the “Dd2 potency compared to the 3D7 results, in words” value in series [1] is on record as “large decreases in potency”. The half-inhibitory concentration (IC50) in series [2] (setting [8]) was 13.9 ± 0.87 µM.

Regarding `C[Si](C)(C)CCOc1nccn2c(-c3ccc(OC(F)F)cc3)nnc12` [Compound 6, 3-[4-(Difluoromethoxy)phenyl]-8-[2-(trimethylsilyl)ethoxy)-[1,2,4]triazolo[4,3-α]pyrazine], the inhibition at 80 µM in series [2] (Plasmodium falciparum) is below 41%.

For `Clc1ccc(-c2nnc3cncc(Cl)n23)cc1` [Compound 7], the figures for the IC50 in series [1] (read-out: Pf Dd2 IC50 ± SD) and in series [2] (setting [8]) were 14.3 ± 0.62 µM and 12.6 µM, respectively.

As to `Cc1ncc(Cl)n2c(-c3ccc(Cl)cc3)nnc12` [Compound 8, 5-Chloro-3-(4-chlorophenyl)-8-methyl-[1,2,4]triazolo[4,3-α]pyrazine], the values for the IC50 in series [1] (read-out: Pf Dd2 IC50 ± SD) and in series [2] (setting [7]) were 32.4 ± 1.44 µM and 19.2 ± 0.28 µM, respectively.

Regarding `N#Cc1ccc(-c2nnc3cncc(Cl)n23)cc1` [Compound 9], the IC50 was 25.9 ± 0.74 µM in series [1] (read-out: Pf Dd2 IC50 ± SD), 18.9 ± 0.66 µM in series [2] (setting [6]) and 18.9 µM in series [2] (setting [7]).

For `Cc1ncc(Cl)n2c(-c3ccc(C#N)cc3)nnc12` [Compound 10, 4-(5-Chloro-8-methyl-1,2,4-triazolo[4,3-α]pyrazin-3-yl)benzonitrile], the IC50 in series [1] (read-out: Pf Dd2 IC50 ± SD) is 38.2 ± 0.61 µM; in series [2] (setting [7]), 27.3 ± 0.82 µM.

Regarding `Cc1ncc(Cl)n2c(-c3ccc(OC(F)F)cc3)nnc12` [Compound 11, 5-Chloro-3-[(4-difluoromethoxy)phenyl]-8-methyl-[1,2,4]triazolo[4,3-α]pyrazine], the “Dd2 potency compared to the 3D7 results, in words” value in series [1] is “large decreases in potency”. Besides, the IC50 worked out at 31.2 ± 0.82 µM in series [1] (read-out: Pf Dd2 IC50 ± SD), 12.5 ± 0.58 µM in series [2] (read-out: Pf 3D7 IC50 ± SD) and 12.5 µM in series [2] (setting [8]).

On to `Cc1ncc(OCC(F)(F)F)n2c(-c3ccc(OC(F)F)cc3)nnc12` [Compound 12, 3-[4-(Difluoromethoxy)phenyl]-8-methyl-5-(2,2,2-trifluoroethoxy)-[1,2,4]triazolo[4,3-a]pyrazine], for which, in series [1], the “Dd2 potency compared to the 3D7 results, in words” value is “large decreases in potency” and the inhibition at 80 µM was below 41%. In addition, in series [2] (3D7, predicted IC50 value not calculated), the “growth inhibition at the top screening concentration” value was below 90%.

On to `Cc1ncc(OCCc2ccccc2)n2c(-c3ccc(OC(F)F)cc3)nnc12` [Compound 13, 3-[4-(Difluoromethoxy)phenyl]-8-methyl-5-(2-phenylethoxy)-[1,2,4]triazolo[4,3-a]pyrazine], for which, in series [1], the “Dd2 potency compared to the 3D7 results, in words” value is “slight increase in potency”. In addition, the IC50 was 8.2 ± 0.6 µM in series [1] (read-out: Pf Dd2 IC50 ± SD), 11 ± 0.56 µM in series [2] (setting [6]) and 11.1 µM in series [2] (setting [7]). Besides, the “fold decrease in potency on methylation” value in series [2] (3D7, compared with compound 2) turned out to be 37 fold.

Consider `FC(F)(F)c1ncc(Cl)n2c(-c3ccc(Cl)cc3)nnc12` [Compound 14, 5-Chloro-3-(4-chlorophenyl)-8-(trifluoromethyl)-[1,2,4]triazolo[4,3-α]pyrazine], for which the values for the IC50 in series [1] (read-out: Pf Dd2 IC50 ± SD) and in series [2] (setting [8]) were 6.18 ± 0.09 µM and 4.84 ± 0.13 µM, respectively.

On to `CC(F)(F)c1ncc(Cl)n2c(-c3ccc(Cl)cc3)nnc12` [Compound 15, 5-Chloro-3-(4-chlorophenyl)-8-(1,1-difluoroethyl)-[1,2,4]triazolo[4,3-a]pyrazine], for which the IC50 in series [1] (read-out: Pf Dd2 IC50 ± SD) stood at 2.58 ± 0.07 µM; in series [2] (read-out: Pf 3D7 IC50 ± SD) it was 1.72 ± 0.02 µM; in series [2] (setting [8]), 1.7 µM. For the same molecule, the “fold improvement in potency compared to the parent scaffold” value in series [2] (3D7, compared with scaffold 7) was found to be 7.3 fold.

As for `CC(F)(F)c1nccn2c(-c3ccc(Cl)cc3)nnc12` [Compound 16, 3-(4-Chlorophenyl)-8-(1,1-difluoroethyl)-[1,2,4]triazolo[4,3-a]pyrazine], the “Dd2 potency compared to the 3D7 results, in words” value in series [1] was “large decreases in potency”. Further, the IC50 in series [1] (read-out: Pf Dd2 IC50 ± SD) is 24.7 ± 0.15 µM; in series [2] (setting [8]), 6.4 ± 0.1 µM.

For `FC1(F)CCC(c2ncc(Cl)n3c(-c4ccc(Cl)cc4)nnc23)CC1` [Compound 17, 5-Chloro-3-(4-chlorophenyl)-8-(4,4-difluorocyclohexyl)-[1,2,4]triazolo[4,3-a]pyrazine], in series [1], the “Dd2 potency compared to the 3D7 results, in words” value is recorded as “large decreases in potency” and the inhibition at 80 µM is below 41%. Also, the “antimalarial activity in words” value in series [2] (3D7) was “limited activity”. The IC50 in series [2] (setting [7]) was 20.2 ± 2.86 µM.

Molecule `FC1(F)CCC(c2nccn3c(-c4ccc(Cl)cc4)nnc23)CC1` [Compound 18, 3-(4-Chlorophenyl)-8-(4,4-difluorocyclohexyl)-[1,2,4]triazolo[4,3-a]pyrazine] registered a melting point of 203 to 205 °C. In addition, the “antimalarial activity in words” value in series [2] (3D7) is “limited activity”. Besides, in series [2] (Plasmodium falciparum), the inhibition at 80 µM was below 41%.

Turning to `OCC(COc1cncc2nnc(-c3ccc(OC(F)F)cc3)n12)c1ccccc1` (stereo not shown) [OSM-LO-13], the IC50 in the series on Pf 3D7 (setting [9]) was 0.279 µM.

With `Fc1ccc([C@@H](COc2cncc3nnc(-c4ccc(OC(F)F)cc4)n23)OC(F)F)cc1F` [OSM-S-377], the IC50 in the series with Pf 3D7 (setting [9]) was 0.016 µM.

Take `OC(COc1cncc2nnc(-c3ccc(OC(F)F)cc3)n12)c1ccc(F)c(F)c1` (stereo not shown) [OSM-S-390]: the IC50 in the series on Pf 3D7 (setting [9]) was 0.07 µM.

Turning to `COc1ccc(C[C@H](N)C(=O)N[C@H]2[C@@H](O)[C@H](n3cnc4c(N(C)C)ncnc43)O[C@@H]2CO)cc1` [Puromycin, reference compound], the IC50 in series [1] (setting [4]) was 0.101 ± 0.0028 µM; in series [2] (setting [5]), 0.0953 ± 0.00145 µM.

Consider `CCc1nc(N)nc(N)c1-c1ccc(Cl)cc1` [Pyrimethamine, reference compound], for which, in series [1], the inhibition at 80 µM was below 41%. In addition, the IC50 in series [2] (setting [5]) stood at 0.01208 ± 4e-05 µM.
